Test results published in patent US20200128830A1, “FUSED BICYCLIC HETEROCYCLE DERIVATIVES AS PESTICIDES” (Bayer Aktiengesellschaft, priority 2017, published 2020).

Key:
Format in all cases: in vivo
Myzus persicae = Myzus persicae oral test; conditions: 120 h, application rate 4 ppm, mixed population of green peach aphids, after 5 days, read-out: efficacy
Procedure: Myzus persicae—Oral Test [table] To produce a suitable active compound formulation, 1 part by weight of active compound is dissolved with the stated parts by weight of solvent and made up to the desired concentration with water. 50 μl of the active compound formulation are transferred into microtitre plates and made up to a final volume of 200 μl with 150 μl of IPL41 insect medium (33%+15% sugar). Subsequently, the plates are sealed with parafilm, which a mixed population of green peach aphids (Myzus persicae) within a second microtitre plate is able to puncture and imbibe the solution. After 5 days, the efficacy in % is determined. 100% means that all the aphids have been killed; 0% means that no aphids have been killed.

Ctenocephalides felis [1] = test: Ctenocephalides felis in vitro contact test with adult cat fleas; conditions: application rate 5 μg/cm^2 (=500 g of ai/ha); adult cat fleas in coated glass tube; after 48 h; dead or moribund
Procedure: Ctenocephalides felis—In Vitro Contact Tests with Adult Cat Fleas For the coating of the test tubes, 9 mg of active compound are first dissolved in 1 ml of acetone p.a. and then diluted to the desired concentration with acetone p.a. 250 μl of the solution are distributed homogeneously on the inner walls and the base of a 25 ml glass tube by turning and rocking on an orbital shaker (rocking rotation at 30 rpm for 2 h). With 900 ppm of active compound solution and internal surface area 44.7 cm^2, given homogeneous distribution, an area-based dose of 5 μg/cm^2 is achieved. After the solvent has evaporated off, the tubes are populated with 5-10 adult cat fleas (Ctenocephalides felis), sealed with a perforated plastic lid and incubated in a horizontal position at room temperature and ambient humidity. After 48 h, efficacy is determined. To this end, the tubes are stood upright and the fleas are knocked to the base of the tube. Fleas which remain motionless at the base or move in an uncoordinated manner are considered to be dead or moribund. […] 100% efficacy means that all the fleas were dead or moribund. 0% efficacy means that no fleas were harmed.

Lucilia cuprina = Lucilia cuprina test; conditions: application rate 100 ppm; L1 larvae on minced horsemeat; after 2 days
Procedure: Lucilia cuprina Test Solvent: Dimethyl Sulfoxide To produce a suitable active compound formulation, 10 mg of active compound are mixed with 0.5 ml of dimethyl sulfoxide, and the concentrate is diluted with water to the desired concentration. About 20 L1 larvae of the Australian sheep blowfly (Lucilia cuprina) are transferred into a test vessel containing minced horsemeat and the active compound preparation of the desired concentration. After 2 days, the kill in % is determined. 100% means that all the larvae have been killed; 0% means that no larvae have been killed.

Spodoptera frugiperda = Spodoptera frugiperda spray test; conditions: foliar, 168 h, application rate 100 g/ha, caterpillars on maize leaf discs, after 7 days, read-out: efficacy
Procedure: Spodoptera frugiperda—Spray Test [table] To produce a suitable active compound formulation, 1 part by weight of active compound is dissolved with the specified parts by weight of solvent and made up to the desired concentration with water containing an emulsifier concentration of 1000 ppm. To produce further test concentrations, the formulation is diluted with emulsifier-containing water. Leaf discs of maize (Zea mays) are sprayed with an active compound formulation of the desired concentration and, after drying, populated with caterpillars of the fall armyworm (Spodoptera frugiperda). After 7 days, the efficacy in % is determined. 100% means that all the caterpillars have been killed; 0% means that no caterpillar has been killed.

Musca domestica = Musca domestica test; conditions: application rate 100 ppm; adult houseflies, sponge with sugar solution; after 2 days
Procedure: Musca domestica Test Solvent: Dimethyl Sulfoxide To produce a suitable active compound formulation, 10 mg of active compound are mixed with 0.5 ml of dimethyl sulfoxide, and the concentrate is diluted with water to the desired concentration. Vessels containing a sponge treated with sugar solution and the desired concentration of active compound formulation are populated with 10 adult houseflies (Musca domestica). After 2 days, the kill in % is determined. 100% means that all of the flies have been killed; 0% means that none of the flies have been killed.

Ctenocephalides felis [2] = test: Ctenocephalides felis oral test; conditions: application rate 100 ppm in citrated cattle blood; unfed adult cat fleas; after 2 days
Procedure: Ctenocephalides felis—Oral Test Solvent: Dimethyl Sulfoxide To produce a suitable active compound formulation, 10 mg of active compound are mixed with 0.5 ml of dimethyl sulfoxide. Dilution with citrated cattle blood gives the desired concentration. About 20 unfed adult cat fleas (Ctenocephalides felis) are placed into a chamber which is closed at the top and bottom with gauze. A metal cylinder whose bottom end is closed with parafilm is placed onto the chamber. The cylinder contains the blood/active compound formulation, which can be imbibed by the fleas through the parafilm membrane. After 2 days, the kill in % is determined. 100% means that all of the fleas have been killed; 0% means that none of the fleas have been killed.

Phaedon cochleariae = Phaedon cochleariae spray test; conditions: foliar, 168 h, application rate 100 g/ha, larvae on Chinese cabbage leaf discs, after 7 days, read-out: efficacy
Procedure: Phaedon cochleariae—Spray Test
To produce a suitable active compound formulation, 1 part by weight of active compound is dissolved with the specified parts by weight of solvent and made up to the desired concentration with water containing an emulsifier concentration of 1000 ppm. To produce further test concentrations, the formulation is diluted with emulsifier-containing water.
Discs of Chinese cabbage leaves (Brassica pekinensis) are sprayed with an active compound formulation of the desired concentration and, after drying, populated with larvae of the mustard beetle (Phaedon cochleariae).
After 7 days, the efficacy in % is determined. 100% means that all the beetle larvae have been killed; 0% means that no beetle larvae have been killed.

With `CCS(=O)(=O)c1c(-c2nc3cc(C(F)(F)F)ncc3n2C)sc2nc(C(F)(F)F)sc12` [I-10] the pest or weed control at 4 ppm (Myzus persicae) was 90%, the efficacy (Ctenocephalides felis [1]) was 100% and the “efficacy (kill in %)” value (Lucilia cuprina) was 100%. The pest or weed control at 100 g/ha (Spodoptera frugiperda) was 100%, the “efficacy (kill in %)” value (Musca domestica) was 80% and the “efficacy (kill in %)” value (Ctenocephalides felis [2]) was 80%. The pest or weed control at 100 g/ha (Phaedon cochleariae) was 100%.
